# Laboratory results published in ChEMBL document CHEMBL1201862, “PubChem BioAssay data set” (2004).
#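 Results reflect a 48-hour exposure of cells in 96-well plates to compound at five concentrations. Here, GI50 denotes the concentration required for 50% inhibition of growth.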 Calls of active or inactive are those of the source. Cut-off read from the data, not from the text of the source: active = GI50 up to about 1.1 µM and inactive = higher.
# Legend:
# Experiment in all cases: NCI anticancer screen, dose series, 48 h
# [1] = test system: NCI-H23
# [2] = test system: OVCAR-3
# [3] = test system: K562
# [4] = test system: ACHN
# [5] = test system: SW-620
# [6] = test system: SN12C
# [7] = test system: MOLT-4
# [8] = test system: NCI-H522
# [9] = test system: HCT-15
# [10] = test system: SK-OV-3
# [11] = test system: HL-60
# [12] = test system: LXFL 529
# [13] = test system: HOP-92
# [14] = test system: 786-0
# [15] = test system: OVCAR-8
# [16] = test system: HOP-62
# [17] = test system: OVCAR-4
# [18] = test system: KM12
SMILES,GI50 [1],GI50 [2],GI50 [3],GI50 [4],GI50 [5],GI50 [6],GI50 [7],GI50 [8],GI50 [9] [µM],GI50 [10],GI50 [11],GI50 [12],GI50 [13],GI50 [14],GI50 [15],GI50 [16],GI50 [17],GI50 [18]
COc1ccc2c(c1)CC1c3c(ccc(OC)c3O)CC2N1C (configuration not stated),43.6 µM (inactive),29.2 µM (inactive),20.4 µM (inactive),51.5 µM (inactive),21.5 µM (inactive),43 µM (inactive),23 µM (inactive),19.7 µM (inactive),34.4,62.7 µM (inactive),16.2 µM (inactive),18.3 µM (inactive),28.1 µM (inactive),29.1 µM (inactive),34.2 µM (inactive),> 92.3 µM (inactive),29.4 µM (inactive),28.2 µM (inactive)
N#Cc1cccc(/C=N/N/C(N)=N/O)c1,97.9 µM (inactive),> 100 µM (inactive),41.2 µM (inactive),31.7 µM (inactive),> 100 µM (inactive),99.8 µM (inactive),–,21.6 µM (inactive),68.5,27.5 µM (inactive),15.2 µM (inactive),39.4 µM (inactive),39.4 µM (inactive),> 100 µM (inactive),78.3 µM (inactive),92.7 µM (inactive),20.9 µM (inactive),52.7 µM (inactive)
CC1=C(CO)C(=O)OC(C(C)C2CCC3C4CC5OC56C(O)C(N5CC5)=CC(=O)C6(C)C4CCC23C)C1 (configuration not stated),2.35 µM (inactive),3.43 µM (inactive),3.59 µM (inactive),5.74 µM (inactive),2.56 µM (inactive),6.58 µM (inactive),1.95 µM (inactive),1.67 µM (inactive),3.46,–,1.61 µM (inactive),4.32 µM (inactive),5.33 µM (inactive),5.05 µM (inactive),2.2 µM (inactive),18.5 µM (inactive),7.19 µM (inactive),2.02 µM (inactive)
C[Si](C)(C)C(Sc1ccccc1)(Sc1ccccc1)Sc1ccccc1,22.3 µM (inactive),–,> 100 µM (inactive),43 µM (inactive),46.7 µM (inactive),> 100 µM (inactive),4.28 µM (inactive),–,50.5,> 100 µM (inactive),35.2 µM (inactive),81.5 µM (inactive),17.1 µM (inactive),> 100 µM (inactive),> 100 µM (inactive),–,> 100 µM (inactive),60.3 µM (inactive)
Cc1cccc(NC(=O)c2c(N)[n+]([O-])c3ccccc3[n+]2[O-])c1,9.68 µM (inactive),15.6 µM (inactive),5.68 µM (inactive),16.1 µM (inactive),8.38 µM (inactive),4.85 µM (inactive),4.89 µM (inactive),6.01 µM (inactive),–,21.1 µM (inactive),8.73 µM (inactive),11 µM (inactive),15.2 µM (inactive),5.02 µM (inactive),10.2 µM (inactive),17.1 µM (inactive),9.98 µM (inactive),14.9 µM (inactive)
CNC(=S)NC(=S)N(C)C,0.692 µM (active),3.18 µM (inactive),1.75 µM (inactive),> 100 µM (inactive),2.96 µM (inactive),> 100 µM (inactive),3.61 µM (inactive),0.678 µM (active),> 100,> 100 µM (inactive),3.42 µM (inactive),> 100 µM (inactive),> 100 µM (inactive),> 100 µM (inactive),4.94 µM (inactive),> 100 µM (inactive),> 100 µM (inactive),–
CCC12CCCN(Cc3ccccc3)C1c1c(n(C)c3ccccc13)C(CO)C2 (configuration not stated),52.2 µM (inactive),36.1 µM (inactive),29.4 µM (inactive),–,35.6 µM (inactive),42.6 µM (inactive),22.4 µM (inactive),30.8 µM (inactive),38.3,74.1 µM (inactive),43.4 µM (inactive),41 µM (inactive),33.4 µM (inactive),44.1 µM (inactive),63.4 µM (inactive),37.6 µM (inactive),–,40.4 µM (inactive)
Cc1cc(C)nc(NS(=O)(=O)c2ccc(NC(=O)c3ccc(Cl)c4c(Nc5ccc(S(=O)(=O)N=C(N)N)cc5)c5ccccc5nc34)cc2)n1,3.91 µM (inactive),44.3 µM (inactive),19 µM (inactive),> 100 µM (inactive),17.4 µM (inactive),20.8 µM (inactive),19.5 µM (inactive),16.1 µM (inactive),–,> 100 µM (inactive),3.72 µM (inactive),44.3 µM (inactive),25.5 µM (inactive),32.7 µM (inactive),8.65 µM (inactive),> 100 µM (inactive),59.2 µM (inactive),37.9 µM (inactive)
COC(=O)C1=C(C(=O)OC)C2(OC(C)=O)c3ccccc3-c3ccccc3C12 (configuration not stated),11.5 µM (inactive),5.53 µM (inactive),1.83 µM (inactive),2.54 µM (inactive),1.66 µM (inactive),4.89 µM (inactive),1.96 µM (inactive),1.44 µM (inactive),5.26,15.5 µM (inactive),4.85 µM (inactive),1.7 µM (inactive),1.77 µM (inactive),4.23 µM (inactive),5.93 µM (inactive),20 µM (inactive),2.47 µM (inactive),12.5 µM (inactive)
